Experimental data reported in US9365574B2, “Soluble guanylate cyclase activators” (Merck Sharp & Dohme Corp., priority 2010, dated 2016).

Test system: Spontaneously hypertensive rats (SHR)
Assay: Acute Efficacy in Spontaneously Hypertensive Rats (SHR), telemetry blood pressure
Assay type: in vivo, rat
Summary of the method: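 Male SHR with aortic telemetry catheters, 14-day recovery, conscious and freely moving; single oral gavage in 10% transcutol/20% Cremophor/70% water. BP sampled 30 s every 10 min, hourly averages minus prior-day vehicle baseline; value is maximum peak SBP decrease at stated mg/kg PO dose.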

Structure (SMILES) | Maximum peak decrease of systolic blood pressure (SBP) in SHR, Category (single oral dose 0.3 mpk P.O.) | also measured
CC1(C(=O)NC2CC2)C(=O)Nc2nc(-c3nn(CCCC(F)(F)F)c4ncccc34)nc(N)c21 (centres unmarked) [Example 222, 4-amino-N-cyclopropyl-5-methyl-6-oxo-2-[1-(4,4,4-trifluorobutyl)-1H-pyrazolo[3,4-b]pyridin-3-yl]-6,7-dihydro-5H-pyrrolo[2,3-d]pyrimidine-5-carboxamide] | C (Category C=SBP in SHRs>40 mmHg) | –
CC1(C(=O)NC2CC2)C(=O)Nc2nc(-c3nn(CCC(F)(F)C(F)(F)F)c4nc(C5CC5)ccc34)nc(N)c21 (centres unmarked) [Example 223, 4-amino-N-cyclopropyl-2-[6-cyclopropyl-1-(3,3,4,4,4-pentafluorobutyl)-1H-pyrazolo[3,4-b]pyridin-3-yl]-5-methyl-6-oxo-6,7-dihydro-5H-pyrrolo[2,3-d]pyrimidine-5-carboxamide] | B (Category B=SBP in SHRs 25-40 mmHg) | –
CC1(C(=O)NC2CC2)C(=O)Nc2nc(-c3nn(CCC(F)(F)F)c4nc(C5CC5)ccc34)nc(N)c21 (centres unmarked) [Example 224, 4-amino-N-cyclopropyl-2-[6-cyclopropyl-1-(3,3,3-trifluoropropyl)-1H-pyrazolo[3,4-b]pyridin-3-yl]-5-methyl-6-oxo-6,7-dihydro-5H-pyrrolo[2,3-d]pyrimidine-5-carboxamide] | – | Maximum peak decrease of systolic blood pressure (SBP) in SHR, Category (single oral dose 1 mpk P.O.): B (Category B=SBP in SHRs 25-40 mmHg)
CC1(c2nnc(C3CC3)o2)C(=O)Nc2nc(-c3nn(CCCC(F)(F)F)c4ncccc34)nc(N)c21 (centres unmarked) [Example 225, 4-amino-5-(5-cyclopropyl-1,3,4-oxadiazol-2-yl)-5-methyl-2-[1-(4,4,4-trifluorobutyl)-1H-pyrazolo[3,4-b]pyridin-3-yl]-5,7-dihydro-6H-pyrrolo[2,3-d]pyrimidin-6-one] | C (Category C=SBP in SHRs>40 mmHg) | –
CC1(C(=O)Nc2ccccn2)C(=O)Nc2nc(-c3nn(CCCC(F)(F)F)c4ncccc34)nc(N)c21 (centres unmarked) [Example 226, 4-amino-5-methyl-6-oxo-N-pyridin-2-yl-2-[1-(4,4,4-trifluorobutyl)-1H-pyrazolo[3,4-b]pyridin-3-yl]-6,7-dihydro-5H-pyrrrolo[2,3-d]pyrimidine-5-carboxamide] | B (Category B=SBP in SHRs 25-40 mmHg) | –
CC1(C(=O)Nc2cccnc2)C(=O)Nc2nc(-c3nn(CCCC(F)(F)F)c4ncccc34)nc(N)c21 (centres unmarked) [Example 227] | B (Category B=SBP in SHRs 25-40 mmHg) | –
CC1(C(N)=O)C(=O)Nc2nc(-c3nn(CCCC(F)(F)F)c4ncccc34)nc(N)c21 (centres unmarked) [Example 228, 4-amino-5-methyl-6-oxo-2-[1-(4,4,4-trifluorobutyl)-1H-pyrazolo[3,4-b]pyridin-3-yl]-6,7-dihydro-5H-pyrrolo[2,3-d]pyrimidine-5-carboxamide] | A (Category A=SBP in SHRs<25 mmHg) | –
Cn1cc(C2(C)C(=O)Nc3nc(-c4nn(CCC(F)(F)C(F)(F)F)c5cc(Cl)ccc45)nc(N)c32)cn1 (centres unmarked) [Example 229, 4-amino-2-[6-chloro-1-(3,3,4,4,4-pentafluorobutyl)-1H-indazol-3-yl]-5-methyl-5-(1-methyl-1H-pyrazol-4-yl)-5,7-dihydro-6H-pyrrolo[2,3-d]pyrimidin-6-one] | – | Maximum peak decrease of systolic blood pressure (SBP) in SHR, Category (single oral dose 1 mpk P.O.): C (Category C=SBP in SHRs>40 mmHg)
CC1(C(=O)NC2COC2)C(=O)Nc2nc(-c3nn(CCC(F)(F)C(F)(F)F)c4nc(Cl)ccc34)nc(N)c21 (centres unmarked) [Example 230, 4-amino-2-[6-chloro-1-(3,3,4,4,4-pentafluorobutyl)-1H-pyrazolo[3,4-b]pyridin-3-yl]-5-methyl-N-oxetan-3-yl-6-oxo-6,7-dihydro-5H-pyrrolo[2,3-d]pyrimidine-5-carboxamide] | – | Maximum peak decrease of systolic blood pressure (SBP) in SHR, Category (single oral dose 0.1 mpk P.O.): A (Category A=SBP in SHRs<25 mmHg)
CC1(C(=O)NC2COC2)C(=O)Nc2nc(-c3nn(CCC(F)(F)C(F)(F)F)c4ncccc34)nc(N)c21 (centres unmarked) [Example 231, 4-amino-5-methyl-N-oxetan-3-yl-6-oxo-2-[1-(3,3,4,4,4-pentafluorobutyl)-1H-pyrazolo[3,4-b]pyridin-3-yl]-6,7-dihydro-5H-pyrrolo[2,3-d]pyrimidine-5-carboxamide] | C (Category C=SBP in SHRs>40 mmHg) | –
CC1(c2ccccn2)C(=O)Nc2nc(-c3nn(CCC(F)(F)F)c4ncccc34)nc(N)c21 (centres unmarked) [Example 232, 4-amino-5-methyl-5-pyridin-2-yl-2-[1-(3,3,3-trifluoropropyl)-1H-pyrazolo[3,4-b]pyridin-3-yl]-5,7-dihydro-6H-pyrrolo[2,3-d]pyrimidin-6-one] | B (Category B=SBP in SHRs 25-40 mmHg) | –
CC1(C(=O)Nc2cccnc2)C(=O)Nc2nc(-c3nn(CCOC(F)(F)F)c4ncccc34)nc(N)c21 (centres unmarked) [Example 233, 4-amino-5-methyl-6-oxo-N-pyridin-3-yl-2-{1-[2-(trifluoromethoxy)ethyl]-1H-pyrazolo[3,4-b]pyridin-3-yl}-6,7-dihydro-5H-pyrrolo[2,3-d]pyrimidine-5-carboxamide] | B (Category B=SBP in SHRs 25-40 mmHg) | –
CC1(C(=O)Nc2cccnc2)C(=O)Nc2nc(-c3nn(CCC(F)(F)C(F)(F)F)c4ncccc34)nc(N)c21 (centres unmarked) [Example 234, 4-amino-5-methyl-6-oxo-2-[1-(3,3,4,4,4-pentafluorobutyl)-1H-pyrazolo[3,4-b]pyridin-3-yl]-N-pyridin-3-yl-6,7-dihydro-5H-pyrrolo[2,3-d]pyrimidine-5-carboxamide] | C (Category C=SBP in SHRs>40 mmHg) | –
CC1(C(=O)NC2CCOC2)C(=O)Nc2nc(-c3nn(CCC(F)(F)C(F)(F)F)c4ncccc34)nc(N)c21 (centres unmarked) [Example 235, 4-amino-5-methyl-6-oxo-2-[1-(3,3,4,4,4-pentafluorobutyl)-1H-pyrazolo[3,4-b]pyridin-3-yl]-N-(tetrahydrofuran-3-yl)-6,7-dihydro-5H-pyrrolo[2,3-d]pyrimidine-5-carboxamide] | B (Category B=SBP in SHRs 25-40 mmHg) | –
CC1(c2nncs2)C(=O)Nc2nc(-c3nn(CCCC(F)(F)F)c4ncccc34)nc(N)c21 (centres unmarked) [Example 236, 4-amino-5-methyl-5-(1,3,4-thiadiazol-2-yl)-2-[1-(4,4,4-trifluorobutyl)-1H-pyrazolo[3,4-b]pyridin-3-yl]-5,7-dihydro-6H-pyrrolo[2,3-d]pyrimidin-6-one] | B (Category B=SBP in SHRs 25-40 mmHg) | –
CC1(C(=O)NC2CC2)C(=O)Nc2nc(-c3nn(CCC(F)(F)C(F)F)c4ncccc34)nc(N)c21 (centres unmarked) [Example 237, 4-amino-N-cyclopropyl-5-methyl-6-oxo-2-[1-(3,3,4,4-tetrafluorobutyl)-1H-pyrazolo[3,4-b]pyridin-3-yl]-6,7-dihydro-5H-pyrrolo[2,3-d]pyrimidine-5-carboxamide] | – | Maximum peak decrease of systolic blood pressure (SBP) in SHR, Category (single oral dose 0.1 mpk P.O.): B (Category B=SBP in SHRs 25-40 mmHg)
CC1(C(=O)NC2CC2)C(=O)Nc2nc(-c3nn(CCC(F)F)c4ncccc34)nc(N)c21 (centres unmarked) [Example 238, 4-amino-N-cyclopropyl-2-[1-(3,3-difluoropropyl)-1H-pyrazolo[3,4-b]pyridin-3-yl]-5-methyl-6-oxo-6,7-dihydro-5H-pyrrolo[2,3-d]pyrimidine-5-carboxamide] | B (Category B=SBP in SHRs 25-40 mmHg) | –
Cc1ccc2c(-c3nc(N)c4c(n3)NC(=O)C4(C)C(=O)NC3CCOCC3)nn(CCC(F)(F)C(F)(F)F)c2n1 (centres unmarked) [Example 239, 4-amino-5-methyl-2-[6-methyl-1-(3,3,4,4,4-pentafluorobutyl)-1H-pyrazolo[3,4-b]pyridin-3-yl]-6-oxo-N-(tetrahydro-2H-pyran-4-yl)-6,7-dihydro-5H-pyrrolo[2,3-d]pyrimidine-5-carboxamide] | A (Category A=SBP in SHRs<25 mmHg) | –
CCC1(C(N)=O)C(=O)Nc2nc(-c3nn(CCC(F)(F)C(F)(F)F)c4ncccc34)nc(N)c21 (centres unmarked) [Example 241, 4-amino-5-ethyl-6-oxo-2-[1-(3,3,4,4,4-pentafluorobutyl)-1H-pyrazolo[3,4-b]pyridin-3-yl]-6,7-dihydro-5H-pyrrolo[2,3-d]pyrimidine-5-carboxamide] | – | Maximum peak decrease of systolic blood pressure (SBP) in SHR, Category (single oral dose 1 mpk P.O.): B (Category B=SBP in SHRs 25-40 mmHg)
Nc1nc(-c2nn(CCC(F)(F)C(F)(F)F)c3ncccc23)nc2c1C(C(=O)NC1CC1)(C1CC1)C(=O)N2 (centres unmarked) [Example 242, 4-amino-N,5-dicyclopropyl-6-oxo-2-[1-(3,3,4,4,4-pentafluorobutyl)-1H-pyrazolo(3,4-b]pyridin-3-yl]-6,7-dihydro-5H-pyrrolo[2,3-d]pyrimidine-5-carboxamide] | B (Category B=SBP in SHRs 25-40 mmHg) | –
Nc1nc(-c2nn(CCC(F)(F)C(F)(F)F)c3ncccc23)nc2c1C(C(=O)NC1CC1)(C1CCCC1)C(=O)N2 (centres unmarked) [Example 243, 4-amino-5-cyclopentyl-N-cyclopropyl-6-oxo-2-[1-(3,3,4,4,4-pentafluorobutyl)-1H-pyrazolo[3,4-b]pyridin-3-yl]-6,7-dihydro-5H-pyrrolo[2,3-d]pyrimidine-5-carboxamide] | – | Maximum peak decrease of systolic blood pressure (SBP) in SHR, Category (single oral dose 1 mpk P.O.): B (Category B=SBP in SHRs 25-40 mmHg)
CC(C)C1(C(N)=O)C(=O)Nc2nc(-c3nn(CCC(F)(F)C(F)(F)F)c4ncccc34)nc(N)c21 (centres unmarked) [Example 244, 4-amino-5-(1-methylethyl)-6-oxo-2-(1-(3,3,4,4,4-pentafluorobutyl)-1H-pyrazolo[3,4-b]pyridin-3-yl]-6,7-dihydro-5H-pyrrolo[2,3-d]pyrimidine-5-carboxamide] | C (Category C=SBP in SHRs>40 mmHg) | –
Nc1nc(-c2nn(CCC(F)(F)F)c3ncccc23)nc2c1C(C(=O)NC1CC1)(C1CC1)C(=O)N2 (centres unmarked) [Example 245, 4-amino-N,5-dicyclopropyl-6-oxo-2-[1-(3,3,3-trifluoropropyl)-1H-pyrazolo[3,4-b]pyridin-3-yl]-6,7-dihydro-5H-pyrrolo[2,3-d]pyrimidine-5-carboxamide] | C (Category C=SBP in SHRs>40 mmHg) | –
